One experiment addresses adenosine A2A receptor (Homo sapiens (Human), UniProt P29274). Briefly: Adenosine receptor activity assay (Table 1), A2A activity. In kind it is biochemical. As to conditions: read-out: Ave A2A cAMP IC50.
For another experiment, the target named is adenosine A2B receptor (Homo sapiens (Human), UniProt P29275). Briefly: Adenosine receptor activity assay (Table 1), A2B activity. In kind it is biochemical. The settings on record: for Ratio: A2A activity to the A2B activity, A2A/A2B; for IC50: read-out: Ave A2B cAMP IC50.

For orientation: IC50 means the point on the concentration scale where inhibition reaches its midpoint.

Each structure is given as a SMILES string.

adenosine A2A receptor, sequence (P29274 whole entry): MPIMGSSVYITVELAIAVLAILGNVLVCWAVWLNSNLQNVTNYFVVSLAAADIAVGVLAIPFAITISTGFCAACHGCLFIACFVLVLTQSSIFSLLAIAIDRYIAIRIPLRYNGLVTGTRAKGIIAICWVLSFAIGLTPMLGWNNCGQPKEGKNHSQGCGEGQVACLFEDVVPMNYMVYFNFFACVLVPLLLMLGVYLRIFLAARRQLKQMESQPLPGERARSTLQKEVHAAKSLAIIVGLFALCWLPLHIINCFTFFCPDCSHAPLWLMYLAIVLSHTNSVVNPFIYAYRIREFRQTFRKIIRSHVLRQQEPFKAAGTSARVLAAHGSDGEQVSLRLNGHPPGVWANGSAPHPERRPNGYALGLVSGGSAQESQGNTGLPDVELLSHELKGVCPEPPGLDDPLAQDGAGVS
adenosine A2B receptor, sequence (P29275 whole entry): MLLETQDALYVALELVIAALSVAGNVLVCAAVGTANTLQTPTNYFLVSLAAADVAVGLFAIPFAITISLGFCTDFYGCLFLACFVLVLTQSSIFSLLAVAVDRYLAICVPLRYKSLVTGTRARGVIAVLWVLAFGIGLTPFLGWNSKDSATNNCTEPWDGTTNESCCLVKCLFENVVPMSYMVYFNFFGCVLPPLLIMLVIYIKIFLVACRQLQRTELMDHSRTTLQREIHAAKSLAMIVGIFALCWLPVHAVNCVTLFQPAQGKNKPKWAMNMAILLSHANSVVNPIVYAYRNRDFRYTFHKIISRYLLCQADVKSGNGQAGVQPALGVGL

In the case of `C[C@H](Nc1nc(C(=O)NCCC2CN(C(=O)OC(C)(C)C)C2)c2sccc2n1)c1ccccn1` [Example Z426, tert-Butyl (S)-3-(2-(2-((1-(pyridin-2-yl)ethyl)amino)thieno[3,2-d]pyrimidine-4-carboxamido)ethyl)azetidine-1-carboxylate], the IC50 on adenosine A2A receptor lay within 100 to 500 nM. At adenosine A2B receptor, the Ratio was 3.47 and the half-maximal inhibitory concentration (IC50) fell in the range of 50 to 100 nM.

As to `C[C@H](Nc1nc(C(=O)NCCC2CCNC2)c2sccc2n1)c1ccccn1` (stereo partly drawn) [Example Z431, 2-(((S)-1-(Pyridin-2-yl)ethyl)amino)-N-(2-(pyrrolidin-3-yl)ethyl)thieno[3,2-d]pyrimidine-4-carboxamide], the IC50 at adenosine A2A receptor was over 500 nM; on adenosine A2B receptor, 100 to 500 nM. Further, the Ratio on adenosine A2B receptor is 37.04.

With `C[C@H](Nc1nc(C(=O)NCCC2CNC2)c2sccc2n1)c1ccccn1` [Example Z432, (S)—N-(2-(Azetidin-3-yl)ethyl)-2-((1-(pyridin-2-yl)ethyl)amino)thieno[3,2-d]pyrimidine-4-carboxamide], the IC50 at adenosine A2A receptor was over 500 nM. Besides, at adenosine A2B receptor, the Ratio was 57.47 and the IC50 lay within 100 to 500 nM.

For `COc1ccc(CNc2nc(C(=O)NC3CCC3)c3sccc3n2)cn1` [Example Z434, N-Cyclobutyl-2-(((6-methoxypyridin-3-yl)methyl)amino)thieno[3,2-d]pyrimidine-4-carboxamide], at adenosine A2A receptor, the IC50 lay within 50 to 100 nM. Further, on adenosine A2B receptor, the Ratio is 0.08 and the IC50 was over 500 nM.

Regarding `COc1ccc(CNc2nc(C(=O)NCc3cccnc3)c3sccc3n2)cn1` [Example Z436, 2-(((6-Methoxypyridin-3-yl)methyl)amino)-N-(pyridin-3-ylmethyl)thieno[3,2-d]pyrimidine-4-carboxamide], the IC50 on adenosine A2A receptor lay within 100 to 500 nM. Further, at adenosine A2B receptor, the Ratio was 0.15 and the IC50 was over 500 nM.

Turning to `COc1cccc(CCNC(=O)c2nc(N[C@@H](C)c3ccccn3)nc3ccsc23)c1` [Example Z437, (S)—N-(3-Methoxyphenethyl)-2-((1-(pyridin-2-yl)ethyl)amino)thieno[3,2-d]pyrimidine-4-carboxamide], the IC50 at adenosine A2A receptor and at adenosine A2B receptor was 100 to 500 nM each time.

Regarding `CCO[C@@H]1CCN(C(=O)c2nc(N[C@@H](C)c3ccccn3)nc3ccsc23)C1` [Example Z438, ((R)-3-Ethoxypyrrolidin-1-yl)(2-(((S)-1-(pyridin-2-yl)ethyl)amino)thieno[3,2-d]pyrimidin-4-yl)methanone], the IC50 at adenosine A2A receptor lay within 50 to 100 nM. Besides, on adenosine A2B receptor, the Ratio was 2.65 and the IC50 lay within 10 to 50 nM.

With `CCOc1ccc(CNc2nc(C(=O)NCCc3cccc(O)c3)c3sccc3n2)cn1` [Example Z439, 2-(((6-Ethoxypyridin-3-yl)methyl)amino)-N-(3-hydroxyphenethyl)thieno[3,2-d]pyrimidine-4-carboxamide], at adenosine A2A receptor, the IC50 lay in the range of 100 to 500 nM. Also, at adenosine A2B receptor, the Ratio was 0.29 and the IC50 was over 500 nM.

As to `CO[C@H]1CCN(C(=O)c2nc(N[C@@H](C)c3ccccn3)nc3c(C)csc23)C1` [Example Z440, ((S)-3-Methoxypyrrolidin-1-yl)(7-methyl-2-(((S)-1-(pyridin-2-yl)ethyl)amino)thieno[3,2-d]pyrimidin-4-yl)methanone], the IC50 at adenosine A2A receptor and at adenosine A2B receptor was 100 to 500 nM throughout. The Ratio on adenosine A2B receptor is 1.91.

Regarding `CO[C@@H]1CCN(C(=O)c2nc(N[C@@H](C)c3ccccn3)nc3c(C)csc23)C1` [Example Z441, ((R)-3-Methoxypyrrolidin-1-yl)(7-methyl-2-(((S)-1-(pyridin-2-yl)ethyl)amino)thieno[3,2-d]pyrimidin-4-yl)methanone], the IC50 at adenosine A2A receptor lay in the range of 10 to 50 nM. Moreover, on adenosine A2B receptor, the Ratio is 1.21 and the IC50 fell in the range of 10 to 50 nM.

Turning to `CCO[C@H]1CCN(C(=O)c2nc(N[C@@H](C)c3ccccn3)nc3ccsc23)C1` [Example Z442, ((S)-3-Ethoxypyrrolidin-1-yl)(2-(((S)-1-(pyridin-2-yl)ethyl)amino)thieno[3,2-d]pyrimidin-4-yl)methanone], the concentration for half-maximal inhibition (IC50) at adenosine A2A receptor is 100 to 500 nM. Besides, at adenosine A2B receptor, the Ratio worked out at 2.19 and the IC50 lay within 100 to 500 nM.

Regarding `Cc1csc2c(C(=O)NCc3ccccc3)nc(N[C@@H](C)c3ccccn3)nc12` [Example Z443, (S)—N-Benzyl-7-methyl-2-((1-(pyridin-2-yl)ethyl)amino)thieno[3,2-d]pyrimidine-4-carboxamide], the IC50 on adenosine A2A receptor fell in the range of 10 to 50 nM. In addition, at adenosine A2B receptor, the Ratio came out at 0.44 and the IC50 lay within 50 to 100 nM.

As for `COc1cccc(CCNC(=O)c2nc(N[C@@H](C)c3ccccn3)nc3c(C)csc23)c1` [Example Z444, (S)—N-(3-Methoxyphenethyl)-7-methyl-2-((1-(pyridin-2-yl)ethyl)amino)thieno[3,2-d]pyrimidine-4-carboxamide], the IC50 on adenosine A2A receptor fell in the range of 50 to 100 nM. On adenosine A2B receptor, the Ratio is listed as 0.35 and the IC50 lay in the range of 100 to 500 nM.

On to `C[C@H](Nc1nc(C(=O)NCCc2cccc(C#N)c2)c2sccc2n1)c1cncc(F)c1` [Example Z445, (S)—N-(3-Cyanophenethyl)-2-((1-(5-fluoropyridin-3-yl)ethyl)amino)thieno[3,2-d]pyrimidine-4-carboxamide], for which the figures for the IC50 at adenosine A2A receptor and on adenosine A2B receptor were over 500 nM and 50 to 100 nM, respectively. The Ratio on adenosine A2B receptor is 9.62.

`C[C@H](Nc1nc(C(=O)NCC2CCN(CCc3ccccc3)CC2)c2sccc2n1)c1ccccn1` [Example Z446, (S)—N-((1-Phenethylpiperidin-4-yl)methyl)-2-((1-(pyridin-2-yl)ethyl)amino)thieno[3,2-d]pyrimidine-4-carboxamide]: the IC50 on adenosine A2A receptor is over 500 nM. Besides, at adenosine A2B receptor, the Ratio is 0.56 and the IC50 was over 500 nM.

For the molecule `Cc1csc2c(C(=O)NCCc3cccc(O)c3)nc(N[C@@H](C)c3ccccn3)nc12` [Example Z447, (S)—N-(3-Hydroxyphenethyl)-7-methyl-2-((1-(pyridin-2-yl)ethyl)amino)thieno[3,2-d]pyrimidine-4-carboxamide], at adenosine A2A receptor, the IC50 was in the range of 50 to 100 nM. In addition, at adenosine A2B receptor, the Ratio is listed as 1.23 and the IC50 was in the range of 50 to 100 nM.

Consider `COc1ncccc1CNC(=O)c1nc(N[C@@H](C)c2ccccn2)nc2ccsc12` [Example Z449, (S)—N-((2-Methoxypyridin-3-yl)methyl)-2-((1-(pyridin-2-yl)ethyl)amino)thieno[3,2-d]pyrimidine-4-carboxamide], for which the IC50 on adenosine A2A receptor and at adenosine A2B receptor was over 500 nM each time. The Ratio at adenosine A2B receptor was found to be 0.91.

In the case of `C[C@H](Nc1nc(C(=O)NCCc2ccc(C(=O)O)cc2)c2sccc2n1)c1cncc(F)c1` [Example Z452, (S)-4-(2-(2-((1-(5-Fluoropyridin-3-yl)ethyl)amino)thieno[3,2-d]pyrimidine-4-carboxamido)ethyl)benzoic acid], the IC50 was over 500 nM on adenosine A2A receptor and 100 to 500 nM on adenosine A2B receptor. Besides, the Ratio at adenosine A2B receptor turned out to be 19.85.

On to `CCOc1ccc(CNc2nc(C(=O)N3CCC3)c3sccc3n2)cn1` [Example Z453, Azetidin-1-yl(2-(((6-ethoxypyridin-3-yl)methyl)amino)thieno[3,2-d]pyrimidin-4-yl)methanone], for which the IC50 on adenosine A2A receptor lay in the range of 100 to 500 nM. Further, at adenosine A2B receptor, the Ratio came to 0.43 and the IC50 is 100 to 500 nM.

For the molecule `C[C@H](Nc1nc(C(=O)NCCc2ccc(S(N)(=O)=O)cc2)c2sccc2n1)c1cncc(F)c1` [Example Z454, (S)-2-((1-(5-Fluoropyridin-3-yl)ethyl)amino)-N-(4-sulfamoylphenethyl)thieno[3,2-d]pyrimidine-4-carboxamide], the half-inhibitory concentration (IC50) at adenosine A2A receptor is over 500 nM; on adenosine A2B receptor, 10 to 50 nM. Further, the Ratio on adenosine A2B receptor amounted to 38.75.

`C[C@H](Nc1nc(C(=O)NCCc2ccc(S(C)(=O)=O)cc2)c2sccc2n1)c1cncc(F)c1` [Example Z455, (S)-2-((1-(5-Fluoropyridin-3-yl)ethyl)amino)-N-(4-(methylsulfonyl)phenethyl)thieno[3,2-d]pyrimidine-4-carboxamide]: the IC50 on adenosine A2A receptor is over 500 nM; at adenosine A2B receptor it was 100 to 500 nM. The Ratio on adenosine A2B receptor worked out at 3.91.

With `Cc1cc2nc(N[C@@H](C)c3cccnc3)nc(C(=O)NCc3ccccn3)c2s1` [Example Z457, (S)-6-Methyl-N-(pyridin-2-ylmethyl)-2-((1-(pyridin-3-yl)ethyl)amino)thieno[3,2-d]pyrimidine-4-carboxamide], the IC50 at adenosine A2A receptor was 100 to 500 nM. Further, at adenosine A2B receptor, the Ratio is listed as 2.73 and the IC50 fell in the range of 50 to 100 nM.

With `CCNC(=O)c1nc(NCCc2ccc(O)cc2)nc2ccsc12` [Example Z460, N-Ethyl-2-((4-hydroxyphenethyl)amino)thieno[3,2-d]pyrimidine-4-carboxamide], on adenosine A2A receptor, the IC50 fell in the range of 100 to 500 nM. In addition, on adenosine A2B receptor, the Ratio was determined as 0.84 and the IC50 was 100 to 500 nM.

As to `COc1ccc([C@H](C)Nc2nc(C(=O)NCc3ccccn3)c3sccc3n2)cc1` [Example Z466, (S)-2-((1-(4-Methoxyphenyl)ethyl)amino)-N-(pyridin-2-ylmethyl)thieno[3,2-d]pyrimidine-4-carboxamide], the half-maximal inhibitory concentration (IC50) at adenosine A2A receptor was 10 to 50 nM; on adenosine A2B receptor, over 500 nM. Further, the Ratio at adenosine A2B receptor came out at 0.05.

Turning to `COC[C@H]1CCN(C(=O)c2nc(N[C@@H](C)c3ccccn3)nc3ccsc23)C1` [Example Z470, ((S)-3-(Methoxymethyl)pyrrolidin-1-yl)(2-(((S)-1-(pyridin-2-yl)ethyl)amino)thieno[3,2-d]pyrimidin-4-yl)methanone], the IC50 at adenosine A2A receptor was in the range of 100 to 500 nM; at adenosine A2B receptor it was 50 to 100 nM. Also, the Ratio on adenosine A2B receptor was determined as 1.07.

`COC[C@@H]1CCN(C(=O)c2nc(N[C@@H](C)c3ccccn3)nc3ccsc23)C1` [Example Z471, ((R)-3-(Methoxymethyl)pyrrolidin-1-yl)(2-(((S)-1-(pyridin-2-yl)ethyl)amino)thieno[3,2-d]pyrimidin-4-yl)methanone]: the IC50 at adenosine A2A receptor lay in the range of 100 to 500 nM. In addition, at adenosine A2B receptor, the Ratio is recorded as 7.81 and the IC50 fell in the range of 50 to 100 nM.

The values above are taken from patent US11254686B1 (Corvus Pharmaceuticals, Inc., priority 2017, dated 2022).
